Assays:
Experiment in all cases: NCI one-dose SRB growth assay
Type in all cases: cell-based
UO-31 = settings: Homo sapiens; UO-31 (Renal Cancer), 10^-5 M, 48 h; read-out: % Growth Inhibition (GI %)
Summary of the method: (§1)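 Compounds tested at a single concentration of 10^-5M on cultured human tumor cells for 48 h. Sulforhodamine B protein staining read spectrophotometrically; values are growth percentage of treated cells relative to untreated controls.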

SN12C = settings: Homo sapiens; SN12C (Renal Cancer), 10^-5 M, 48 h; read-out: % Growth Inhibition (GI %)
Summary of the method: as §1

PRMI-8226 = settings: Homo sapiens; PRMI-8226 (Leukemia), 10^-5 M, 48 h; read-out: % Growth Inhibition (GI %)
Summary of the method: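 SRB colorimetry after 48 h incubation with a 10^-5M single dose; growth % relative to untreated.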

CAKI-1 = settings: Homo sapiens; CAKI-1 (Renal Cancer), 10^-5 M, 48 h; read-out: % Growth Inhibition (GI %)
Summary of the method: as §1

MDA-MB-468 = settings: Homo sapiens; MDA-MB-468 (Breast Cancer), 10^-5 M, 48 h; read-out: % Growth Inhibition (GI %)
Summary of the method: as §1

OVCAR-4 = settings: Homo sapiens; OVCAR-4 (Ovarian Cancer), 10^-5 M, 48 h; read-out: % Growth Inhibition (GI %)
Summary of the method: as §1

NCI-H522 = settings: Homo sapiens; NCI-H522 (Non-Small Cell Lung Cancer), 10^-5 M, 48 h; read-out: % Growth Inhibition (GI %)
Summary of the method: as §1

786-0 = settings: Homo sapiens; 786-0 (Renal Cancer), 10^-5 M, 48 h; read-out: % Growth Inhibition (GI %)
Summary of the method: as §1

HOP-92 = settings: Homo sapiens; HOP-92 (Non-Small Cell Lung Cancer), 10^-5 M, 48 h; read-out: % Growth Inhibition (GI %)
Summary of the method: as §1

SNB-19 = settings: Homo sapiens; SNB-19 (CNS Cancer), 10^-5 M, 48 h; read-out: % Growth Inhibition (GI %)
Summary of the method: as §1

SK-MEL-2 = settings: Homo sapiens; SK-MEL-2 (Melanoma), 10^-5 M, 48 h; read-out: % Growth Inhibition (GI %)
NCI-H23 = settings: Homo sapiens; NCI-H23 (Non-Small Cell Lung Cancer), 10^-5 M, 48 h; read-out: % Growth Inhibition (GI %)
Summary of the method: as §1

UACC-62 = settings: Homo sapiens; UACC-62 (Melanoma), 10^-5 M, 48 h; read-out: % Growth Inhibition (GI %)
Summary of the method: as §1

RXF 393 = settings: Homo sapiens; RXF 393 (Renal Cancer), 10^-5 M, 48 h; read-out: % Growth Inhibition (GI %)
Summary of the method: as §1

HL-60(TB) = settings: Homo sapiens; HL-60(TB) (Leukemia), 10^-5 M, 48 h; read-out: % Growth Inhibition (GI %)
MALME-3M = settings: Homo sapiens; MALME-3M (Melanoma), 10^-5 M, 48 h; read-out: % Growth Inhibition (GI %)
Summary of the method: as §1

M14 = settings: Homo sapiens; M14 (Melanoma), 10^-5 M, 48 h; read-out: % Growth Inhibition (GI %)
Summary of the method: as §1

HCT-15 = settings: Homo sapiens; HCT-15 (Colon Cancer), 10^-5 M, 48 h; read-out: % Growth Inhibition (GI %)
Summary of the method: as §1

SK-MEL-5 = settings: Homo sapiens; SK-MEL-5 (Melanoma), 10^-5 M, 48 h; read-out: % Growth Inhibition (GI %)
Summary of the method: as §1

UACC-257 = settings: Homo sapiens; UACC-257 (Melanoma), 10^-5 M, 48 h; read-out: % Growth Inhibition (GI %)
Summary of the method: as §1

TK-10 = settings: Homo sapiens; TK-10 (Renal Cancer), 10^-5 M, 48 h; read-out: % Growth Inhibition (GI %)
OVCAR-3 = settings: Homo sapiens; OVCAR-3 (Ovarian Cancer), 10^-5 M, 48 h; read-out: % Growth Inhibition (GI %)
Summary of the method: as §1

OVCAR-8 = settings: Homo sapiens; OVCAR-8 (Ovarian Cancer), 10^-5 M, 48 h; read-out: % Growth Inhibition (GI %)
Summary of the method: as §1

A498 = settings: Homo sapiens; A498 (Renal Cancer), 10^-5 M, 48 h; read-out: % Growth Inhibition (GI %)
Summary of the method: as §1

MDA-MB-231/ATCC = settings: Homo sapiens; MDA-MB- 231/ATCC (Breast Cancer), 10^-5 M, 48 h; read-out: % Growth Inhibition (GI %)
Summary of the method: as §1

K-562 = settings: Homo sapiens, K562; K-562 (Leukemia), 10^-5 M, 48 h; read-out: % Growth Inhibition (GI %)
Summary of the method: as §1

For O=C(O)c1cn(C2CC2)c2cc(N3CCN(S(=O)(=O)c4ccc(Cl)c(Cl)c4)CC3)c(F)cc2c1=O [Compound 3b], the inhibition at 10 µM (UO-31) was 90%, the inhibition at 10 µM (SN12C) was 89.6% and the inhibition at 10 µM (PRMI-8226) was 95.1%. The inhibition at 10 µM (CAKI-1) was 96.9%, the inhibition at 10 µM (MDA-MB-468) was over 100% and the inhibition at 10 µM (OVCAR-4) was 79.2%. It also gave an inhibition at 10 µM (NCI-H522) of over 100%, an inhibition at 10 µM (786-0) of 72.2% and an inhibition at 10 µM (HOP-92) of 87.8%. The inhibition at 10 µM (SNB-19) was 75.3%, the inhibition at 10 µM (SK-MEL-2) was over 100% and the inhibition at 10 µM (NCI-H23) was 98.2%. It also gave an inhibition at 10 µM (UACC-62) of 70.4%, an inhibition at 10 µM (RXF 393) of 71% and an inhibition at 10 µM (HL-60(TB)) of over 100%. For the same compound, the inhibition at 10 µM (MALME-3M) was over 100%, the inhibition at 10 µM (M14) was 81.5% and the inhibition at 10 µM (HCT-15) was 93.8%. The inhibition at 10 µM (SK-MEL-5) was 97.9%, the inhibition at 10 µM (UACC-257) was 91.1% and the inhibition at 10 µM (TK-10) was 66.8%. The inhibition at 10 µM (OVCAR-3) was 90.1%, the inhibition at 10 µM (OVCAR-8) was 94.5% and the inhibition at 10 µM (A498) was 86.2%. The inhibition at 10 µM (MDA-MB-231/ATCC) was 63.4% and the inhibition at 10 µM (K-562) was 83.1%.

Work on CCn1cc(C(=O)O)c(=O)c2cc(F)c(N3CCN(S(=O)(=O)c4cccc5ccccc45)CC3)cc21 [Compound 7a] yielded an inhibition at 10 µM (UO-31) of over 100%, an inhibition at 10 µM (SN12C) of 88.1% and an inhibition at 10 µM (PRMI-8226) of 93.5%. The inhibition at 10 µM (CAKI-1) was 99.1%, the inhibition at 10 µM (MDA-MB-468) was 95.2% and the inhibition at 10 µM (OVCAR-4) was 76.2%. It also gave an inhibition at 10 µM (NCI-H522) of over 100%, an inhibition at 10 µM (786-0) of 75.7% and an inhibition at 10 µM (HOP-92) of over 100%. The inhibition at 10 µM (SNB-19) was 71.2%, the inhibition at 10 µM (SK-MEL-2) was 91.2% and the inhibition at 10 µM (NCI-H23) was 99.9%. For the same compound, the inhibition at 10 µM (UACC-62) was 68.8%, the inhibition at 10 µM (RXF 393) was 71% and the inhibition at 10 µM (HL-60(TB)) was over 100%. It also gave an inhibition at 10 µM (MALME-3M) of over 100%, an inhibition at 10 µM (M14) of 82.1% and an inhibition at 10 µM (HCT-15) of 88.9%. For the same compound, the inhibition at 10 µM (SK-MEL-5) was over 100%, the inhibition at 10 µM (UACC-257) was 86% and the inhibition at 10 µM (TK-10) was 74%. It also gave an inhibition at 10 µM (OVCAR-3) of over 100%, an inhibition at 10 µM (OVCAR-8) of 91.6% and an inhibition at 10 µM (A498) of over 100%. For the same compound, the inhibition at 10 µM (MDA-MB-231/ATCC) was 76.1% and the inhibition at 10 µM (K-562) was 84.6%.

From EP2987533B1, “7-substituted piperazin-1-yl fluoroquinolone compounds, their use in the treatment of cancer, pharmaceutical compositions and a method for preparation” (priority 2014, dated 2016)
